This note sets out measurements from patent US20250129102A1, “CRYSTAL FORM OF PYRIMIDINE HETEROCYCLIC COMPOUND AND PREPARATION METHOD THEREFOR” (D3 Bio (Wuxi) Co., Ltd., priority 2021, published 2025).

The nature of data set [1]: Metabolic stability in hepatocytes, human. The data set is classed as in vitro ADME. To be noted: cryopreserved hepatocytes. How it is done: Metabolic stabilities of assay compound in hepatocytes of CD-1 mice, SD rats, beagle dogs, cynomolgus monkeys, and human were assayed, respectively.
Several 96-well sample precipitation plates were prepared and named T0, T15, T30, T60, T90, T120, T0-MC, T120-MC and blank substrates, respectively. The recovery medium and incubation medium were taken out in advance and placed in a 37° C. water bath for pre-heating. Cryopreserved hepatocytes were removed from the liquid nitrogen tank and immediately immersed in a 37° C. water bath (approximately 90 seconds). After the cryopreserved hepatocytes had thawed and loosened, they were poured into a centrifuge tube containing 40 mL of recovery medium, and the tube was gently inverted to allow the cells to be resuspended in the recovery medium. The cells were centrifuged at 100×g at room temperature for 5 min, and the supernatant was removed. The hepatocytes were resuspended in an appropriate volume of incubation medium, and the cell viability was calculated by Trypan Blue staining method. 198 μL of hepatocyte suspension (0.51×10^6 cells/mL) was added to the preheated incubation plate. For the culture medium control group, 198 μL of hepatocyte-free incubation medium was added to T0-MC and T120-MC incubation plate. All incubation plates were pre-incubated in a 37° C. incubator for 10 minutes. Then 2 μL of working solutions of the assay sample and the control compound were added, respectively, and the mixture was mixed well. The incubation plate was immediately put into the shaker in the incubator, and the reaction was initiated while starting the timer. For each time point of each compound, 2 duplicate samples were prepared. The incubation conditions were 37° C., saturated humidity, and 5% CO2. […] All samples were mixed well and analyzed by LC/MS/MS.

Data set [2] can be described thus: In vitro stability in liver microsomes, human. The note with it: 0.5 mg/mL. The data set is classed as in vitro ADME. How it is done:
(§1) Metabolic stabilities of the assay compound in liver microsomes of CD-1 mice, SD rats, beagle dogs, cynomolgus monkeys, and human were assayed, respectively.
(§2) Two 96-well incubation plates were prepared and named T60 incubation plate and NCF60 incubation plate, respectively. 445 μL of microsomal working solutions (liver microsomal protein concentration of 0.56 mg/mL) were added to the T60 incubation plate and the NCF60 incubation plate, respectively, and then the above incubation plates were pre-incubated in a 37° C. water bath for about 10 minutes.
(§3) After the pre-incubation, 5 μL of working solutions of the assay sample or the control compound were added to the T60 incubation plate and the NCF60 incubation plate, respectively, and the mixture was mixed well. 50 μL of potassium phosphate buffer was added to each well of the NCF60 incubation plate to initiate the reaction. 180 μL of stop solution (200 ng/mL tolbutamide and 200 ng/mL labetalol in acetonitrile) and 6 uL of NADPH regeneration system working solution were added to the T0 stop plate, and 54 μL of sample was transferred from T60 incubation plate to T0 stop plate (generation of T0 sample). The reaction was initiated by adding 44 μL of NADPH regeneration system working solution to each well of the T60 incubation plate. Only 54 μL of microsome working solution, 6 uL of NADPH regeneration system working solution and 180 μL of stop solution were added to the Blank plate. Therefore, in samples of the assay compound or the control compound, the final reaction concentration of compound, testosterone, diclofenac and propafenone was 1 μM, the concentration of liver microsomes was 0.5 mg/mL, and the final reaction concentrations of DMSO and acetonitrile in the reaction system were 0.01% (v/v) and 0.99% (v/v), respectively. […] All samples were injected and analyzed by liquid chromatography-tandem mass spectrometry.
For orientation: Liver microsomes are a subcellular fraction often used to study metabolism.

The nature of data set [3]: In vitro stability in liver microsomes, cynomolgus monkeys. The note with it: cynomolgus monkey, 0.5 mg/mL. The data set is classed as in vitro ADME. On the procedure: as §1, §2, §3
Data set [4] can be described thus: Protein binding rate in plasma by equilibrium dialysis, SD rats. The class given is in vitro ADME. How it is done:
Protein binding rate of the assay compound in plasma of CD-1 mice, SD rats, beagle dogs, cynomolgus monkeys and human was determined by equilibrium dialysis.
Plasma samples with a compound concentration of 2 μM were prepared using plasma of the above five species, placed in a 96-well equilibrium dialysis device, and dialyzed with phosphate buffer solution at 37±1° C. for 4 hours. Warfarin was used as the control compound in this assay. The concentrations of the assay compound in plasma and dialysis buffer were determined by LC-MS/MS method.
For orientation: In equilibrium dialysis free small molecules cross a membrane that holds back macromolecules.

Data set [5] concerns KRAS^G12C-mutated H358 cells. Description: cells. The note with it: Homo sapiens, NCI-H358, 120 h, read-out: NCI-H358 IC50. On the procedure: The main instrument used in this assay was a Nivo multi-label analyzer (PerkinElmer).
The assay was carried out in duplicate. 78 μL of medium was added to the intermediate plate, and then 2 μL of the serially diluted compound was transferred to each well of the intermediate plate according to the corresponding position. After mixing well, 20 μL per well was transferred to the cell plate. […] The cell plate was incubated in a carbon dioxide incubator for 5 days. Another cell plate was prepared, and the signal value of the cell plate was read on the day of compound addition as the maximum value (Max value in the equation below) to participate in data analysis. 25 μL of cell viability chemiluminescence detection reagent was added to each well of the cell plate, and the plate was incubated at room temperature for 10 minutes to stabilize the luminescence signal. A multi-label analyzer was used for reading the plate. • 3) 25 μL of cell viability chemiluminescence detection reagent was added to each well of the cell plate, and the plate was incubated at room temperature for 10 minutes to stabilize the luminescence signal. A multi-label analyzer was used for reading the plate.

The structures appear in SMILES notation.

What is called half-life is how long it takes for the measured level to halve. One may read the IC50 as the concentration needed to halve the response being measured. For `C=C(F)C(=O)N1CCN(c2nc(OC[C@@]34CCCN3C[C@H](F)C4)nc3c2CO[C@H](c2c(F)c(N)cc(C)c2C(F)(F)F)C3)C[C@@H]1CC#N` [Compound of formula (I)], the half-life at 1 μM in data set [1] turned out to be 99.5 min; in data set [2], 20.4 min; in data set [3], 6.2 min. The hepatocyte CLint at 1 μM in data set [1] (read-out: CLint(hep)) was 13.9 µL/min/1e6 cells. Further, the CLint scaled at 1 μM was determined as 38.7 mL/min/kg in data set [1] (read-out: CLint(liver)), 61.1 mL/min/kg in data set [2] and 303 mL/min/kg in data set [3]. Besides, the microsomal CLint at 1 μM in data set [2] (read-out: CLint(hep)) stood at 67.9 µL/min/mg; in data set [3] (read-out: CLint(hep)) it was 225 µL/min/mg. In data set [4] (SD rats plasma, 2 μM, equilibrium dialysis 4 hours), the “Protein unbound rate (%)” value worked out at 4.8%. Besides, the fraction unbound at 4 h, 2 μM in data set [4] (plasma, value used in the SD rat PK table, read-out: Plasma protein unbound rate PPB (Unbound %)) was 0.048. The IC50 in data set [5] came to 0.6 nM.
